Values of other authors, collected in article PMC11901438, “Synthesis and Evaluation of Boron-Containing Heterocyclic Compounds with Antimicrobial and Anticancer Activities” (Molecules, 2025).
In brackets after ≈: the same amount, converted by molar mass.

Tested on: Mycobacterium tuberculosis
Design: method as in PMID 33410233
Conditions: earlier work of the same laboratory; cited from earlier work

## O=C(Nc1ccc(N2CCN(c3ncccn3)CC2)c(F)c1)c1ccc2no[n+]([O-])c2c1 [Compound 2]
  MIC90 (CIM90) anti-Mycobacterium tuberculosis: 2.22 µM (≈ 0.967 µg/mL)

## O=C(Nc1ccc(N2CCOCC2)c(F)c1)c1ccc2no[n+]([O-])c2c1 [Compound 5]
  MIC90 (CIM90) anti-Mycobacterium tuberculosis: 5.22 µM (≈ 1.87 µg/mL)

## O=C(Nc1ccc(N2CCN(c3ccc(F)cc3)CC2)c(F)c1)c1ccc2no[n+]([O-])c2c1 [Compound 3]
  MIC90 (CIM90) anti-Mycobacterium tuberculosis: 3.82 µM (≈ 1.72 µg/mL)

## O=C(Nc1ccc(N2CCCCCC2)c(F)c1)c1ccc2no[n+]([O-])c2c1 [Compound 6]
  MIC90 (CIM90) anti-Mycobacterium tuberculosis: 2.89 µM (≈ 1.07 µg/mL)

## O=C(Nc1ccc(N2CCN(c3ccccn3)CC2)c(F)c1)c1ccc2no[n+]([O-])c2c1 [Compound 1]
  MIC90 (CIM90) anti-Mycobacterium tuberculosis: 0.09 µM (≈ 0.0391 µg/mL)

## O=C(Nc1ccc(N2CCSCC2)c(F)c1)c1ccc2no[n+]([O-])c2c1 [Compound 4]
  MIC90 (CIM90) anti-Mycobacterium tuberculosis: 0.70 µM (≈ 0.262 µg/mL)
